Measured values taken from patent US20220408731A1, “MODIFIED ANTIMICROBIAL PEPTIDES” (priority 2021, published 2022).
≈ marks a conversion by molar mass, not a printed value. Bridge positions count the residues as written; N and C are the ends. Square brackets hold non-standard residues; d marks the D form. Ends that are not written are not given here. Peptide text beside a SMILES is read from it. Dab = NCC[C@H](N)C(=O)O

Experiments:
B. cinerea = assay: Drop inoculation assay on detached Nicotiana benthamiana leaves (semi-in planta); type: in vivo, Botrytis cinerea; conditions: 48 h
[1] = tested on: Colletotrichum gloeosporioides

Molecule | MIC (μM) (SFM + 2 mM CaCl2) (Botrytis cinerea) [µM] | MIC (μM) (SFM + 100 mM KCl) (Botrytis cinerea) [µM] | MIC (μM) (SFM + 100 mM NaCl) (Botrytis cinerea) [µM] | MIC (μM) SFM (Botrytis cinerea) [µM] | Gray mold symptoms, drop inoculation assay (B. cinerea; peptide at 3 μM and 6 μM) | also measured
C[C@@H](O)[C@H](NC(=O)[C@H](CS)NC(=O)[C@H](Cc1c[nH]c2ccccc12)NC(=O)[C@H](CS)NC(=O)[C@H](CCCNC(=N)N)NC(=O)[C@H](Cc1ccccc1)NC(=O)[C@H](CC(=O)O)NC(=O)[C@H](CC(=O)O)NC(=O)[C@H](CCCNC(=N)N)NC(=O)[C@H](CS)NC(=O)[C@H](CCCNC(=N)N)NC(=O)CN)C(=O)N[C@@H](CCCCN)C(=O)N[C@@H](CC(N)=O)C(=O)N[C@@H](CS)C(=O)O [GMA1C, reference compound] (H-GRCRDDFRCWCTKNC-OH; N-terminus assumed) | >12 | >12 | >12 | >12 |  | 
CC[C@H](C)[C@H](NC(=O)[C@H](CCCNC(=N)N)NC(=O)[C@H](CS)NC(=O)[C@H](CCCNC(=N)N)NC(=O)CNC(=O)[C@@H](N)CO)C(=O)N[C@@H](CC(C)C)C(=O)N[C@@H](Cc1ccccc1)C(=O)N[C@@H](CCCNC(=N)N)C(=O)N[C@@H](CS)C(=O)N[C@@H](Cc1ccccc1)C(=O)N[C@@H](CS)C(=O)N[C@H](C(=O)N[C@@H](CCCCN)C(=O)N[C@@H](CC(N)=O)C(=O)N[C@@H](CS)C(N)=O)[C@@H](C)O [GMA1C_V1] (H-SGRCRILFRCFCTKNC-NH2; N-terminus assumed) |  | >12 | >6 | >6 |  | 
CC[C@H](C)[C@@H]1NC(=O)[C@H](CCCNC(=N)N)NC(=O)[C@@H](NC(=O)[C@H](CCCNC(=N)N)NC(=O)CNC(=O)[C@@H](N)CO)CSSC[C@@H](C(N)=O)NC(=O)[C@H](CC(N)=O)NC(=O)[C@H](CCCCN)NC(=O)[C@H]([C@@H](C)O)NC(=O)[C@H](Cc2c[nH]c3ccccc23)NC(=O)[C@H](Cc2ccccc2)NC(=O)[C@H](Cc2c[nH]c3ccccc23)NC(=O)[C@H](CCCNC(=N)N)NC(=O)[C@H](Cc2ccccc2)NC(=O)[C@H](CC(C)C)NC1=O [GMA1C_V2] (H-SGRCRILFRWFWTKNC-NH2; disulfide 4-16; N-terminus assumed) | 3 | >12 | 3 | 1.5 to 3 | completely abrogated gray mold symptoms | Gray mold symptoms, drop inoculation assay (B. cinerea; peptide at 1.5 μM): more effective than GMA1C_V1
CC[C@H](C)[C@@H]1NC(=O)[C@H](CCCNC(=N)N)NC(=O)[C@@H](NC(=O)[C@H](CCCNC(=N)N)NC(=O)CNC(=O)[C@@H](N)CO)CSSC[C@@H](C(N)=O)NC(=O)[C@H](CC(N)=O)NC(=O)[C@H](CCCCN)NC(=O)[C@H]([C@@H](C)O)NC(=O)[C@H](Cc2ccccc2)NC(=O)[C@H](Cc2ccc(O)cc2)NC(=O)[C@H](Cc2c[nH]c3ccccc23)NC(=O)[C@H](CCCNC(=N)N)NC(=O)[C@H](Cc2ccccc2)NC(=O)[C@H](CC(C)C)NC1=O [GMA1C_V3] (H-SGRCRILFRWYFTKNC-NH2; disulfide 4-16; N-terminus assumed) | 6 | >12 | 3 | 1.5 (≈ 3.07 µg/mL) |  | 
C[C@@H](O)[C@H](NC(=O)[C@H](CS)NC(=O)[C@H](Cc1ccccc1)NC(=O)[C@H](CS)NC(=O)[C@H](CCCNC(=N)N)NC(=O)[C@H](CCCNC(=N)N)NC(=O)[C@H](CCCNC(=N)N)NC(=O)[C@H](Cc1ccccc1)NC(=O)CNC(=O)[C@H](CCCNC(=N)N)NC(=O)[C@H](CS)NC(=O)[C@H](CCCNC(=N)N)NC(=O)CN)C(=O)N[C@H](C(=O)N[C@@H](Cc1c[nH]cn1)C(=O)N[C@@H](CS)C(N)=O)[C@@H](C)O [GMA4AC, reference compound] (H-GRCRGFRRRCFCTTHC-NH2) |  |  |  |  |  | MIC, Alternaria alternata (Alternaria alternata): >12 µM; MIC, Cercospora sojina (Cercospora sojina): >12 µM; MIC, Colletotrichum gloeosporioides [1]: >12 µM
C[C@@H](O)[C@H](NC(=O)[C@H](CS)NC(=O)[C@H](Cc1ccccc1)NC(=O)[C@H](CS)NC(=O)[C@H](CCCNC(=N)N)NC(=O)[C@H](CCCNC(=N)N)NC(=O)[C@H](CCCNC(=N)N)NC(=O)[C@H](Cc1ccccc1)NC(=O)CNC(=O)[C@H](CCCNC(=N)N)NC(=O)[C@H](CS)NC(=O)[C@H](CCCNC(=N)N)NC(=O)CN)C(=O)N[C@H](C(=O)N[C@@H](Cc1c[nH]cn1)C(=O)N[C@@H](CS)C(N)=O)[C@@H](C)O [GMA4AC] (H-GRCRGFRRRCFCTTHC-NH2) |  |  |  | 3 (≈ 5.88 µg/mL) |  | 
N=C(N)NCCC[C@H](NC(=O)CNC(=O)[C@@H](N)Cc1ccccc1)C(=O)N[C@@H](CS)C(=O)N[C@@H](CCCNC(=N)N)C(=O)NCC(=O)N[C@@H](Cc1ccccc1)C(=O)N[C@@H](CCCNC(=N)N)C(=O)N[C@@H](CCCNC(=N)N)C(=O)N[C@@H](CCCNC(=N)N)C(=O)N[C@@H](CS)C(=O)N[C@@H](Cc1ccccc1)C(=O)N[C@@H](CS)C(=O)N[C@@H](Cc1c[nH]c2ccccc12)C(=O)N[C@@H](CCCNC(=N)N)C(=O)N[C@@H](Cc1c[nH]c2ccccc12)C(=O)N[C@@H](CS)C(=O)O [GMA4C_V4] (H-FGRCRGFRRRCFCWRWC-OH; N-terminus assumed) |  |  |  |  |  | B. cinerea MIC (Botrytis cinerea): 1.5 µM; MIC (μM) Botrytis cinerea (Botrytis cinerea): 3 µM (≈ 6.89 µg/mL); SFM + 2 mM CaCl2 MIC (Botrytis cinerea): 6 µM; SFM + 100 mM KCl MIC (Botrytis cinerea): 3 µM; SFM + 100 mM NaCl MIC (Botrytis cinerea): 3 µM; SFM MIC (Botrytis cinerea): 3 µM
NCC[C@H](NC(=O)CNC(=O)[C@@H](N)Cc1ccccc1)C(=O)N[C@@H](CS)C(=O)N[C@@H](CCN)C(=O)NCC(=O)N[C@@H](Cc1ccccc1)C(=O)N[C@@H](CCN)C(=O)N[C@@H](CCN)C(=O)N[C@@H](CCN)C(=O)N[C@@H](CS)C(=O)N[C@@H](Cc1ccccc1)C(=O)N[C@@H](CS)C(=O)N[C@@H](Cc1c[nH]c2ccccc12)C(=O)N[C@@H](CCN)C(=O)N[C@@H](Cc1c[nH]c2ccccc12)C(=O)N[C@@H](CS)C(=O)O [GMA4C_V5, FG(Dab)C(Dab)GF(Dab)(Dab)(Dab)CFCW(Dab)WC] (H-FG[Dab]C[Dab]GF[Dab][Dab][Dab]CFCW[Dab]WC-OH; N-terminus assumed) |  |  |  |  |  | B. cinerea MIC (Botrytis cinerea): 1.5 µM; MIC (μM) Botrytis cinerea (Botrytis cinerea): 6 µM (≈ 11.8 µg/mL); SFM + 2 mM CaCl2 MIC (Botrytis cinerea): >6 µM; SFM + 100 mM KCl MIC (Botrytis cinerea): >6 µM; SFM + 100 mM NaCl MIC (Botrytis cinerea): 6 µM; SFM MIC (Botrytis cinerea): 6 µM
C[C@H](NC(=O)CN)C(=O)N[C@@H](CS)C(=O)N[C@@H](Cc1c[nH]cn1)C(=O)N[C@@H](CCCNC(=N)N)C(=O)N[C@@H](CCC(N)=O)C(=O)NCC(=O)N[C@@H](Cc1ccccc1)C(=O)NCC(=O)N[C@@H](Cc1ccccc1)C(=O)N[C@@H](C)C(=O)N[C@@H](CS)C(=O)N[C@@H](Cc1ccccc1)C(=O)N[C@@H](CS)C(=O)N[C@@H](Cc1ccc(O)cc1)C(=O)N[C@@H](CCCCN)C(=O)N[C@@H](CCCCN)C(=O)N[C@@H](CS)C(N)=O [GMA5CA_WT, reference compound] (H-GACHRQGFGFACFCYKKC-NH2; N-terminus assumed) | >12 | >12 | >12 | 6 (≈ 12.2 µg/mL) |  | 
CC(C)C[C@@H]1NC(=O)[C@@H](NC(=O)[C@H](C)NC(=O)CN)CSSC[C@@H](C(=O)N[C@@H](Cc2ccc(O)cc2)C(N)=O)NC(=O)[C@H](Cc2c[nH]cn2)NC(=O)[C@H](CCCNC(=N)N)NC(=O)[C@H](Cc2ccc(O)cc2)NC(=O)[C@H](Cc2ccc(O)cc2)NC(=O)[C@H](Cc2c[nH]c3ccccc23)NC(=O)[C@H](Cc2ccccc2)NC(=O)[C@H](Cc2c[nH]c3ccccc23)NC(=O)CNC(=O)[C@H](Cc2ccc(O)cc2)NC(=O)[C@H](Cc2c[nH]cn2)NC(=O)[C@H](CCCCN)NC(=O)[C@H](CO)NC(=O)[C@H](Cc2c[nH]cn2)NC(=O)[C@H](CCCNC(=N)N)NC(=O)[C@H](CC(N)=O)NC(=O)[C@H](CCCCN)NC1=O [GMAOe1C_V3] (H-GACLKNRHSKHYGWFWYYRHCY-NH2; disulfide 3-21; N-terminus assumed) | 3 to 6 | 6 to 12 | 2 to 3 | 1.5 (≈ 4.31 µg/mL) | completely abrogated gray mold symptoms | Gray mold symptoms, drop inoculation assay (B. cinerea; peptide at 1.5 μM): more effective than GMAOe1C_V4 or GMAOe1C_WT
CC(C)C[C@@H]1NC(=O)[C@@H](NC(=O)[C@H](C)NC(=O)CN)CSSC[C@@H](C(=O)N[C@@H](Cc2ccc(O)cc2)C(N)=O)NC(=O)[C@H](Cc2c[nH]cn2)NC(=O)[C@H](CCCNC(=N)N)NC(=O)[C@H](Cc2ccc(O)cc2)NC(=O)[C@H](Cc2ccc(O)cc2)NC(=O)[C@H](Cc2c[nH]c3ccccc23)NC(=O)[C@H](Cc2ccccc2)NC(=O)[C@H](Cc2ccccc2)NC(=O)CNC(=O)[C@H](Cc2ccc(O)cc2)NC(=O)[C@H](Cc2c[nH]cn2)NC(=O)[C@H](CCCCN)NC(=O)[C@H](CO)NC(=O)[C@H](Cc2c[nH]cn2)NC(=O)[C@H](CCCNC(=N)N)NC(=O)[C@H](CC(N)=O)NC(=O)[C@H](CCCCN)NC1=O [GMAOe1C_V4] (H-GACLKNRHSKHYGFFWYYRHCY-NH2; disulfide 3-21; N-terminus assumed) | 6 to 12 | 6 to 12 | 6 | 1.5 (≈ 4.25 µg/mL) | completely abrogated gray mold symptoms | 
CC(C)C[C@H](NC(=O)[C@H](CS)NC(=O)[C@H](C)NC(=O)CN)C(=O)N[C@@H](CCCCN)C(=O)N[C@@H](CC(N)=O)C(=O)N[C@@H](CCCNC(=N)N)C(=O)N[C@@H](Cc1c[nH]cn1)C(=O)N[C@@H](CO)C(=O)N[C@@H](CCCCN)C(=O)N[C@@H](Cc1c[nH]cn1)C(=O)N[C@@H](Cc1ccc(O)cc1)C(=O)NCC(=O)N[C@@H](CS)C(=O)N[C@@H](Cc1ccc(O)cc1)C(=O)N[C@@H](CS)C(=O)N[C@@H](Cc1ccc(O)cc1)C(=O)N[C@@H](Cc1ccc(O)cc1)C(=O)N[C@@H](CCCNC(=N)N)C(=O)N[C@@H](Cc1c[nH]cn1)C(=O)N[C@@H](CS)C(=O)N[C@@H](Cc1ccc(O)cc1)C(N)=O [GMAOe1C_WT, reference compound] (H-GACLKNRHSKHYGCYCYYRHCY-NH2; N-terminus assumed) | >12 | 6 to 12 | 3 to 6 | 3 (≈ 8.18 µg/mL) | only effective at 6 μM | 
GACLKNRHSKHYGWFWYYRHCY-NH2 (cysteine pairing not given here) [GMAOe1C_V2] |  |  |  |  | completely abrogated gray mold symptoms | 
